# Biological target: T1, human TLR8 (Homo sapiens, UniProt Q9NR97)
# T1 construct: host or cells: HEK-Blue cells
# T1 sequence (Q9NR97 27-1041): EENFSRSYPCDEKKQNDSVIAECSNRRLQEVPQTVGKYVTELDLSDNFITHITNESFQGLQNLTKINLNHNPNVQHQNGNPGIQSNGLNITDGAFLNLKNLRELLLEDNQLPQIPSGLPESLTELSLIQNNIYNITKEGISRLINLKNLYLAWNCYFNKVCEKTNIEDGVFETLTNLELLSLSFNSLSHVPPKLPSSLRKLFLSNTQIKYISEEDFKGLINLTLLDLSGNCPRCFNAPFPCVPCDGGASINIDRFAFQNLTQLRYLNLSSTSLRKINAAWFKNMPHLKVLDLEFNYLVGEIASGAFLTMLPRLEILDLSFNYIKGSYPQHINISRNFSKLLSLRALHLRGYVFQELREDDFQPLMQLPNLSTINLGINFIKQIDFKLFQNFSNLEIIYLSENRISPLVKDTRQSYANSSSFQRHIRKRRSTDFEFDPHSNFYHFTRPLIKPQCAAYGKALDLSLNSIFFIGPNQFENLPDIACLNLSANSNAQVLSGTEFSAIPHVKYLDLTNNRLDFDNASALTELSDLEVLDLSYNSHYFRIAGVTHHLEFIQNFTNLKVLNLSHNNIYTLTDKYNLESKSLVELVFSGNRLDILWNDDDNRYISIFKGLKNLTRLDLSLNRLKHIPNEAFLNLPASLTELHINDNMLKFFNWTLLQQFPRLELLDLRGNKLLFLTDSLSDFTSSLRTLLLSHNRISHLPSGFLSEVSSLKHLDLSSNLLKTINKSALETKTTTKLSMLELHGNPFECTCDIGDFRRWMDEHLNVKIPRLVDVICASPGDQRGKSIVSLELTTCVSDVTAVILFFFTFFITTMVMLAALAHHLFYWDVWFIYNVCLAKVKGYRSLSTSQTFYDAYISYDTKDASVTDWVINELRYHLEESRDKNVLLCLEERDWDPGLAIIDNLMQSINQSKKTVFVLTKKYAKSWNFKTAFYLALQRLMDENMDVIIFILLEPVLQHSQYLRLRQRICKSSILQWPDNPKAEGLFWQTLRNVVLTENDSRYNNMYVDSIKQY
# Experiment: TLR8 inhibition reporter assay (HEK-Blue SEAP)
# Assay type: cell-based
# Details: HEK-Blue cells overexpressing human TLR8, R848 15.9 μM, 22 hour incubation
# Summary of the method: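 Human TLR7/8/9 HEK-Blue reporter lines; dose range 0.05 nM–50 μM; 30 min RT preincubation; stimulus gardiquimod 7.5 μM / R848 15.9 μM / ODN2006 5 nM respectively; 22 h, 37 °C; SEAP detected colorimetrically.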
row,Compound,IC50
1,"CCC(CC)CN1CCC[C@H](n2c(=O)[nH]c3cc(-c4cc(OC)c5ncnn5c4)c(C(C)C)cc32)C1 [Example 130, (S)-1-(1-(2-ethylbutyl)piperidin-3-yl)-6-isopropyl-5-(8-methoxy-[1,2,4]triazolo[1,5-a]pyridin-6-yl)-1,3-dihydro-2H-benzo[d]imidazol-2-one]",8.52 nM
2,"COc1cc(-c2cc3[nH]c(=O)n([C@H]4CCCN(CCC(C)C)C4)c3cc2C(C)C)cn2ncnc12 [Example 132, (S)-1-(1-isopentylpiperidin-3-yl)-6-isopropyl-5-(8-methoxy-[1,2,4]triazolo[1,5-a]pyridin-6-yl)-1,3-dihydro-2H-benzo[d]imidazol-2-one]",10.1 nM
3,"COc1cc(-c2cc3[nH]c(=O)n([C@H]4CCCN(CC5CCC5)C4)c3cc2C(C)C)cn2ncnc12 [Example 133, (S)-1-(1-(cyclobutylmethyl)piperidin-3-yl)-6-isopropyl-5-(8-methoxy-[1,2,4]triazolo[1,5-a]pyridin-6-yl)-1,3-dihydro-2H-benzo[d]imidazol-2-one]",5.9 nM
4,"CCCN1CCC[C@@H](n2c(=O)[nH]c3cc(-c4cc(OC)c5ncnn5c4)c(C(C)C)cc32)C1 [Example 134, (R)-6-isopropyl-5-(8-methoxy-[1,2,4]triazolo[1,5-a]pyridin-6-yl)-1-(1-propylpiperidin-3-yl)-1,3-dihydro-2H-benzo[d]imidazol-2-one]",5.93 nM
5,"COc1cc(-c2cc3[nH]c(=O)n([C@@H]4CCCN(C5COC5)C4)c3cc2C(C)C)cn2ncnc12 [Example 135, (R)-6-isopropyl-5-(8-methoxy-[1,2,4]triazolo[1,5-a]pyridin-6-yl)-1-(1-(oxetan-3-yl)piperidin-3-yl)-1,3-dihydro-2H-benzo[d]imidazol-2-one]",20 nM
6,"COc1cc(-c2cc3[nH]c(=O)n([C@@H]4CCCN(C)C4)c3cc2C(C)C)cn2ncnc12 [Example 136, (R)-6-isopropyl-5-(8-methoxy-[1,2,4]triazolo[1,5-a]pyridin-6-yl)-1-(1-methylpiperidin-3-yl)-1,3-dihydro-2H-benzo[d]imidazol-2-one]",2.01 nM
7,"COc1cc(-c2cc3[nH]c(=O)n([C@@H]4CCCN(C(C)C)C4)c3cc2C(C)C)cn2ncnc12 [Example 137, (R)-6-isopropyl-1-(1-isopropylpiperidin-3-yl)-5-(8-methoxy-[1,2,4]triazolo[1,5-a]pyridin-6-yl)-1,3-dihydro-2H-benzo[d]imidazol-2-one]",1.37 nM
8,"CCN1CCC[C@@H](n2c(=O)[nH]c3cc(-c4cc(OC)c5ncnn5c4)c(C(C)C)cc32)C1 [Example 138, (R)-1-(1-ethylpiperidin-3-yl)-6-isopropyl-5-(8-methoxy-[1,2,4]triazolo[1,5-a]pyridin-6-yl)-1,3-dihydro-2H-benzo[d]imidazol-2-one]",2.64 nM
9,"COc1cc(-c2cc3[nH]c(=O)n([C@@H]4CCCN(CC5CCOCC5)C4)c3cc2C(C)C)cn2ncnc12 [Example 139, (R)-6-isopropyl-5-(8-methoxy-[1,2,4]triazolo[1,5-a]pyridin-6-yl)-1-(1-((tetrahydro-2H-pyran-4-yl)methyl)piperidin-3-yl)-1,3-dihydro-2H-benzo[d]imidazol-2-one]",1.27 nM
10,"COc1cc(-c2cc3[nH]c(=O)n([C@@H]4CCCN(CC5CCC5)C4)c3cc2C(C)C)cn2ncnc12 [Example 140, (R)-1-(1-(cyclobutylmethyl)piperidin-3-yl)-6-isopropyl-5-(8-methoxy-[1,2,4]triazolo[1,5-a]pyridin-6-yl)-1,3-dihydro-2H-benzo[d]imidazol-2-one]",3.92 nM
11,"COc1cc(-c2cc3[nH]c(=O)n([C@@H]4CCCN(CC(C)C)C4)c3cc2C(C)C)cn2ncnc12 [Example 141, (R)-1-(1-isobutylpiperidin-3-yl)-6-isopropyl-5-(8-methoxy-[1,2,4]triazolo[1,5-a]pyridin-6-yl)-1,3-dihydro-2H-benzo[d]imidazol-2-one]",0.56 nM
12,"COc1cc(-c2cc3[nH]c(=O)n([C@@H]4CCCN(CC5CC5)C4)c3cc2C(C)C)cn2ncnc12 [Example 142, (R)-1-(1-(cyclopropylmethyl)piperidin-3-yl)-6-isopropyl-5-(8-methoxy-[1,2,4]triazolo[1,5-a]pyridin-6-yl)-1,3-dihydro-2H-benzo[d]imidazol-2-one]",2.2 nM
13,"COc1cc(-c2cc3[nH]c(=O)n([C@@H]4CCCN(C5CCOCC5)C4)c3cc2C(C)C)cn2ncnc12 [Example 143, (R)-6-isopropyl-5-(8-methoxy-[1,2,4]triazolo[1,5-a]pyridin-6-yl)-1-(1-(tetrahydro-2H-pyran-4-yl)piperidin-3-yl)-1,3-dihydro-2H-benzo[d]imidazol-2-one]",3.24 nM
14,"Cc1c(-c2cc3[nH]c(=O)n([C@@H]4CCCN(C(C)C)C4)c3cc2C(C)C)cn2ncnc2c1C [Example 145, (R)-5-(7,8-dimethyl-[1,2,4]triazolo[1,5-a]pyridin-6-yl)-6-isopropyl-1-(1-isopropylpiperidin-3-yl)-1,3-dihydro-2H-benzo[d]imidazol-2-one]",2.1 nM
15,"Cc1c(-c2cc3[nH]c(=O)n([C@@H]4CCCN(C5COC5)C4)c3cc2C(C)C)cn2ncnc2c1C [Example 146, (R)-5-(7,8-dimethyl-[1,2,4]triazolo[1,5-a]pyridin-6-yl)-6-isopropyl-1-(1-(oxetan-3-yl)piperidin-3-yl)-1,3-dihydro-2H-benzo[d]imidazol-2-one]",6.05 nM
16,"Cc1c(-c2cc3[nH]c(=O)n([C@@H]4CCCN(C)C4)c3cc2C(C)C)cn2ncnc2c1C [Example 147, (R)-5-(7,8-dimethyl-[1,2,4]triazolo[1,5-a]pyridin-6-yl)-6-isopropyl-1-(1-methylpiperidin-3-yl)-1,3-dihydro-2H-benzo[d]imidazol-2-one]",23.5 nM
17,"CCC(CC)CN1CCC[C@@H](n2c(=O)[nH]c3cc(-c4cc(OC)c5ncnn5c4)c(C(C)C)cc32)C1 [Example 148, (R)-1-(1-(2-ethylbutyl)piperidin-3-yl)-6-isopropyl-5-(8-methoxy-[1,2,4]triazolo[1,5-a]pyridin-6-yl)-1,3-dihydro-2H-benzo[d]imidazol-2-one]",1.09 nM
18,"Cc1c(-c2cc3[nH]c(=O)n([C@@H]4CCCN(CC5CCOCC5)C4)c3cc2C(C)C)cn2ncnc2c1C [Example 149, (R)-5-(7,8-dimethyl-[1,2,4]triazolo[1,5-a]pyridin-6-yl)-6-isopropyl-1-(1-((tetrahydro-2H-pyran-4-yl)methyl)piperidin-3-yl)-1,3-dihydro-2H-benzo[d]imidazol-2-one]",4.58 nM
19,"CCCN1CCC[C@@H](n2c(=O)[nH]c3cc(-c4cn5ncnc5c(C)c4C)c(C(C)C)cc32)C1 [Example 150, (R)-5-(7,8-dimethyl-[1,2,4]triazolo[1,5-a]pyridin-6-yl)-6-isopropyl-1-(1-propylpiperidin-3-yl)-1,3-dihydro-2H-benzo[d]imidazol-2-one]",4.25 nM
20,"CCC(CC)CN1CCC[C@@H](n2c(=O)[nH]c3cc(-c4cn5ncnc5c(C)c4C)c(C(C)C)cc32)C1 [Example 151, (R)-5-(7,8-dimethyl-[1,2,4]triazolo[1,5-a]pyridin-6-yl)-1-(1-(2-ethylbutyl)piperidin-3-yl)-6-isopropyl-1,3-dihydro-2H-benzo[d]imidazol-2-one]",21.7 nM
21,"COc1cc(-c2cc3[nH]c(=O)n([C@@H]4CCCN(CC(C)(C)C)C4)c3cc2C(C)C)cn2ncnc12 [Example 153, (R)-6-isopropyl-5-(8-methoxy-[1,2,4]triazolo[1,5-a]pyridin-6-yl)-1-(1-neopentylpiperidin-3-yl)-1,3-dihydro-2H-benzo[d]imidazol-2-one]",2.27 nM
22,"COc1cc(-c2cc3[nH]c(=O)n(C4CCN(C)CC4)c3cc2C(C)C)cn2ncnc12 [Example 154, 6-isopropyl-5-(8-methoxy-[1,2,4]triazolo[1,5-a]pyridin-6-yl)-1-(1-methylpiperidin-4-yl)-1,3-dihydro-2H-benzo[d]imidazol-2-one]",1.52 nM
23,"CCCN1CCC(n2c(=O)[nH]c3cc(-c4cc(OC)c5ncnn5c4)c(C(C)C)cc32)CC1 [Example 155, 6-isopropyl-5-(8-methoxy-[1,2,4]triazolo[1,5-a]pyridin-6-yl)-1-(1-propylpiperidin-4-yl)-1,3-dihydro-2H-benzo[d]imidazol-2-one]",9.56 nM
24,"COc1cc(-c2cc3[nH]c(=O)n(C4CCN(C5CCC5)CC4)c3cc2C(C)C)cn2ncnc12 [Example 156, 1-(1-cyclobutylpiperidin-4-yl)-6-isopropyl-5-(8-methoxy-[1,2,4]triazolo[1,5-a]pyridin-6-yl)-1,3-dihydro-2H-benzo[d]imidazol-2-one]",4.77 nM
